Measured values: ChEMBL document CHEMBL4507280 (2021)

Columns and labels:
[1] = target: Beta-3 adrenergic receptor (Homo sapiens) (UniProt P13945); conditions: Compound concentration 10.0 uM
[2] = target: Interleukin-1 receptor-associated kinase 1 (Homo sapiens) (UniProt P51617); conditions: Compound concentration 1000.0 nM
[3] = target: Myosin-IIIb (Homo sapiens) (UniProt Q8WXR4); conditions: Compound concentration 1000.0 nM
[4] = target: Calcium/calmodulin-dependent protein kinase type IV (Homo sapiens) (UniProt Q16566); conditions: Compound concentration 1000.0 nM
[5] = test system: Mast/stem cell growth factor receptor Kit (Homo sapiens), P10721 [V559D,T670I]; conditions: Compound concentration 1000.0 nM
[6] = target: Protein kinase C eta type (Homo sapiens) (UniProt P24723); conditions: Compound concentration 1000.0 nM
[7] = target: Testis-specific serine/threonine-protein kinase 3 (Homo sapiens) (UniProt Q96PN8); conditions: Compound concentration 1000.0 nM
[8] = target: Sodium-dependent serotonin transporter (Homo sapiens) (UniProt P31645); conditions: Compound concentration 10.0 uM
[9] = target: Tyrosine-protein kinase Lck (Homo sapiens) (UniProt P06239); conditions: Compound concentration 1000.0 nM
Sequence of Tyrosine-protein kinase Lck (Homo sapiens) (P06239 2-509 limits assumed): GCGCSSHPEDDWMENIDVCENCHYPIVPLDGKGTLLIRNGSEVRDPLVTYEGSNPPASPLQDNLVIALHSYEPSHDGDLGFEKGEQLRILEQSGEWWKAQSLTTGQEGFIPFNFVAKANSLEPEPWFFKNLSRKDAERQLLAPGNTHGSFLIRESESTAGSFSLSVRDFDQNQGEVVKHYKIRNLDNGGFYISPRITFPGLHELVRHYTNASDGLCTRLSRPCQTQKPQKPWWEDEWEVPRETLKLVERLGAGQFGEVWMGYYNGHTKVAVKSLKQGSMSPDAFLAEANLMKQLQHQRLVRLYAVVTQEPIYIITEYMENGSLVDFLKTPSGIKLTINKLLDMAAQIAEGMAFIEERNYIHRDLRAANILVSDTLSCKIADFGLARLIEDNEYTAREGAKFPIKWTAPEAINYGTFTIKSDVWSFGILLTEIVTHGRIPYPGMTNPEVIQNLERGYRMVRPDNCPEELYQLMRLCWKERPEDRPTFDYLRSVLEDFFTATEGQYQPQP

[10] = target: Cyclin-dependent kinase 19 (Homo sapiens) (UniProt Q9BWU1); conditions: Compound concentration 1000.0 nM
Sequence of Cyclin-dependent kinase 19 (Homo sapiens) (Q9BWU1 whole entry): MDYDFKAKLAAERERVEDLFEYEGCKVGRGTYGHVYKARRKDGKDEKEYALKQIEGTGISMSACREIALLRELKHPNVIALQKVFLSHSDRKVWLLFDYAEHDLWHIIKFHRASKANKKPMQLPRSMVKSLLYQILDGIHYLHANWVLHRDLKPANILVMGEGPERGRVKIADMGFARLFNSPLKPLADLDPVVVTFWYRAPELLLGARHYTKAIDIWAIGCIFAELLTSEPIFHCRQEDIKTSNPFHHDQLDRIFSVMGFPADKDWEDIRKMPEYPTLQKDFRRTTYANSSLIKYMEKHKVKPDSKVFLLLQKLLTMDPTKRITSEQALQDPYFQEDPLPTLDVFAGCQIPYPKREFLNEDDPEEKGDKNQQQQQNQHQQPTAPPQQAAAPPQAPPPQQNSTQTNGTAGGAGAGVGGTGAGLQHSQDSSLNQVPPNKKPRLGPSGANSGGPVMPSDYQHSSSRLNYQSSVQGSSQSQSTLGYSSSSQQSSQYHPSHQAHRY

[11] = target: Serine/threonine-protein kinase MRCK gamma (Homo sapiens) (UniProt Q6DT37); conditions: Compound concentration 1000.0 nM
[12] = target: Muscarinic acetylcholine receptor M4 (Homo sapiens) (UniProt P08173); conditions: Compound concentration 10.0 uM
[13] = target: Cyclin-dependent kinase 15 (Homo sapiens) (UniProt Q96Q40); conditions: Compound concentration 1000.0 nM
[14] = target: 3-phosphoinositide-dependent protein kinase 1 (Homo sapiens) (UniProt O15530); conditions: Compound concentration 1000.0 nM
[15] = target: Ephrin type-A receptor 1 (Homo sapiens) (UniProt P21709); conditions: Compound concentration 1000.0 nM
Sequence of Ephrin type-A receptor 1 (Homo sapiens) (P21709 whole entry): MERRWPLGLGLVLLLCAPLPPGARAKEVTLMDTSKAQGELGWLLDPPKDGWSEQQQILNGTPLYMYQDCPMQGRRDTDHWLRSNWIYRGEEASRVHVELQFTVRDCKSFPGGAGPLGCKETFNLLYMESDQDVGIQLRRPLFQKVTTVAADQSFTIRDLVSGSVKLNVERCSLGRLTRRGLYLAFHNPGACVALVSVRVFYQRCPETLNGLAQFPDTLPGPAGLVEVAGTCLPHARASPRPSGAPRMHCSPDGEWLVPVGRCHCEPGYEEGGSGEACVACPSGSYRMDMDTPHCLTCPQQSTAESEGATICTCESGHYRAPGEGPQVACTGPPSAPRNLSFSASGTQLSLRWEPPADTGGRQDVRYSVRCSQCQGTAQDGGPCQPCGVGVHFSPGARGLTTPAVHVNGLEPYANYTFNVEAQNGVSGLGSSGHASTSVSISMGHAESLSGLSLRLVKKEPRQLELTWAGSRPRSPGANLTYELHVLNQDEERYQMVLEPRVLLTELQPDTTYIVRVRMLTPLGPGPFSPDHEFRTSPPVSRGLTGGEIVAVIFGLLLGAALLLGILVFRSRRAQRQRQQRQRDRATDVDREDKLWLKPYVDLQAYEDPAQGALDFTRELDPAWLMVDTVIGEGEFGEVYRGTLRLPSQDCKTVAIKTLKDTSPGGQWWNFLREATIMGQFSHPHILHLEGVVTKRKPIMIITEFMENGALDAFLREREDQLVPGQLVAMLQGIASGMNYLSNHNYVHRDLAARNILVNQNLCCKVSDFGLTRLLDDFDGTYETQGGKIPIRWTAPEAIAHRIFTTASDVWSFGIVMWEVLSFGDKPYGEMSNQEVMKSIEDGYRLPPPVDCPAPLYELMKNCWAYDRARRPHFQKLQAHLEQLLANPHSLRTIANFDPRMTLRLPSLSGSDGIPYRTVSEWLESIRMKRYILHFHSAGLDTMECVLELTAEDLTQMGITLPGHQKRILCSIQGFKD

[16] = target: Cyclin-dependent kinase 18 (Homo sapiens) (UniProt Q07002); conditions: Compound concentration 1000.0 nM
[17] = target: Dual specificity protein kinase CLK3 (Homo sapiens) (UniProt P49761); conditions: Compound concentration 1000.0 nM
Sequence of Dual specificity protein kinase CLK3 (Homo sapiens) (P49761 whole entry, looked up, canonical isoform): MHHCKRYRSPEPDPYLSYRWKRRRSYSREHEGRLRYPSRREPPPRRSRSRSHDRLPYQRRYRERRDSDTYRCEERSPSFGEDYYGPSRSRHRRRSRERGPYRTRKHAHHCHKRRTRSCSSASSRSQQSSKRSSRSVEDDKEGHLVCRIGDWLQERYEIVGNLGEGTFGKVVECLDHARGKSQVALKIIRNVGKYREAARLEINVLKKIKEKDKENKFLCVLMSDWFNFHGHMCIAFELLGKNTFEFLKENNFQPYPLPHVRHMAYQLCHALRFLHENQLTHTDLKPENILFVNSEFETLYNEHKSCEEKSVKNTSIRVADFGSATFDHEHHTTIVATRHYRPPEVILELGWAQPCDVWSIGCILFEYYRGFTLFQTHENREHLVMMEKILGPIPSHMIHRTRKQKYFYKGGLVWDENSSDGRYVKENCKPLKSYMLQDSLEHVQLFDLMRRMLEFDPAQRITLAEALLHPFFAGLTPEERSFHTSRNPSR

[18] = target: Casein kinase I isoform delta (Homo sapiens) (UniProt P48730); conditions: Compound concentration 1000.0 nM
Sequence of Casein kinase I isoform delta (Homo sapiens) (P48730 whole entry, looked up, canonical isoform): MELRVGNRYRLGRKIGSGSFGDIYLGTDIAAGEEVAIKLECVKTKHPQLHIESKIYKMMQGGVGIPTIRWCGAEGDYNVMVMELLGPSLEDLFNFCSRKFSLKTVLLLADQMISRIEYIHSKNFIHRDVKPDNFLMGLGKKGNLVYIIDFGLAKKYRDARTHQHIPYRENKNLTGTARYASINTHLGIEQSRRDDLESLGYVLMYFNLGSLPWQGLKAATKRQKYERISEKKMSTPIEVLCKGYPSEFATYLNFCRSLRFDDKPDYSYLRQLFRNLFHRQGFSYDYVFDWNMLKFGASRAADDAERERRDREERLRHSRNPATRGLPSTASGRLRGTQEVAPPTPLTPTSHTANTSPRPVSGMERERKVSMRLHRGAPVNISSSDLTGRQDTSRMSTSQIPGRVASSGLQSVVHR

[19] = target: Dual specificity tyrosine-phosphorylation-regulated kinase 1A (Homo sapiens) (UniProt Q13627); conditions: Compound concentration 1000.0 nM
[20] = target: Homeodomain-interacting protein kinase 2 (Homo sapiens) (UniProt Q9H2X6); conditions: Compound concentration 1000.0 nM
[21] = target: T1, Muscarinic acetylcholine receptor M2 (Homo sapiens) (UniProt P08172); conditions: Compound concentration 10.0 uM
T1 sequence (whole entry): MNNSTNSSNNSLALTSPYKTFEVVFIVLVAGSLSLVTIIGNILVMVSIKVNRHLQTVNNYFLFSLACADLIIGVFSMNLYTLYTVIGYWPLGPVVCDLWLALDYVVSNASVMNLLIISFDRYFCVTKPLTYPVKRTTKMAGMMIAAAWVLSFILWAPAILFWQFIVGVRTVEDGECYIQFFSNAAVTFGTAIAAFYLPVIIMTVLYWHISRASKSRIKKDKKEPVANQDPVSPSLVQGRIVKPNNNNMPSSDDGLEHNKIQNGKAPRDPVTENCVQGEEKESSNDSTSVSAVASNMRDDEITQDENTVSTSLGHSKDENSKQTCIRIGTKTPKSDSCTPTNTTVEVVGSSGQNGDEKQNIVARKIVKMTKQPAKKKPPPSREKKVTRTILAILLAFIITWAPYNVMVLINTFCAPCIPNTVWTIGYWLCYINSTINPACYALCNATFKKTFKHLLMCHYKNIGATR

[22] = target: Tyrosine-protein kinase Srms (Homo sapiens) (UniProt Q9H3Y6); conditions: Compound concentration 1000.0 nM
[23] = target: Serine/threonine-protein kinase PLK3 (Homo sapiens) (UniProt Q9H4B4); conditions: Compound concentration 1000.0 nM
[24] = test system: Epidermal growth factor receptor (Homo sapiens), P00533 [UNDEFINED MUTATION]; conditions: Compound concentration 1000.0 nM
[25] = target: Sodium-dependent dopamine transporter (Homo sapiens) (UniProt Q01959); conditions: Compound concentration 10.0 uM
[26] = target: Casein kinase II subunit alpha (Homo sapiens) (UniProt P68400); conditions: Compound concentration 1000.0 nM
[27] = test system: Tyrosine-protein kinase ABL1 (Homo sapiens), P00519 [F317I]; conditions: Compound concentration 1000.0 nM
[28] = target: Tyrosine-protein kinase JAK1 (Homo sapiens) (UniProt P23458); conditions: Compound concentration 1000.0 nM
[29] = target: Phosphatidylinositol 4,5-bisphosphate 3-kinase catalytic subunit gamma isoform (Homo sapiens) (UniProt P48736); conditions: Compound concentration 1000.0 nM
Histamine H4 receptor = Histamine H4 receptor (Homo sapiens, UniProt Q9H3N8); conditions: Compound concentration 10.0 uM
Sequence of Histamine H4 receptor (Q9H3N8 whole entry): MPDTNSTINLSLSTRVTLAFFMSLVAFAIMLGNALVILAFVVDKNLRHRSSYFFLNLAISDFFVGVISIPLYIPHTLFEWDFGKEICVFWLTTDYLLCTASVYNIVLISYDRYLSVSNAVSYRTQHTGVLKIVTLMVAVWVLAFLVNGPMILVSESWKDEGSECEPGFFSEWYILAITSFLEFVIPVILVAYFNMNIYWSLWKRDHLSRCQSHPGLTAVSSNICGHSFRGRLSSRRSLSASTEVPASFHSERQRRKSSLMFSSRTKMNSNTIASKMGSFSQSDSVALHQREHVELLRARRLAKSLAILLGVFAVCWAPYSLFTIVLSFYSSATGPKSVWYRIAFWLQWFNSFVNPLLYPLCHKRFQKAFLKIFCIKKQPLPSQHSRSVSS

[30] = test system: Mast/stem cell growth factor receptor Kit (Homo sapiens), P10721 [D816V]; conditions: Compound concentration 1000.0 nM
Sequence of Mast/stem cell growth factor receptor Kit (Homo sapiens), P10721 [D816V] (P10721 whole entry D816V): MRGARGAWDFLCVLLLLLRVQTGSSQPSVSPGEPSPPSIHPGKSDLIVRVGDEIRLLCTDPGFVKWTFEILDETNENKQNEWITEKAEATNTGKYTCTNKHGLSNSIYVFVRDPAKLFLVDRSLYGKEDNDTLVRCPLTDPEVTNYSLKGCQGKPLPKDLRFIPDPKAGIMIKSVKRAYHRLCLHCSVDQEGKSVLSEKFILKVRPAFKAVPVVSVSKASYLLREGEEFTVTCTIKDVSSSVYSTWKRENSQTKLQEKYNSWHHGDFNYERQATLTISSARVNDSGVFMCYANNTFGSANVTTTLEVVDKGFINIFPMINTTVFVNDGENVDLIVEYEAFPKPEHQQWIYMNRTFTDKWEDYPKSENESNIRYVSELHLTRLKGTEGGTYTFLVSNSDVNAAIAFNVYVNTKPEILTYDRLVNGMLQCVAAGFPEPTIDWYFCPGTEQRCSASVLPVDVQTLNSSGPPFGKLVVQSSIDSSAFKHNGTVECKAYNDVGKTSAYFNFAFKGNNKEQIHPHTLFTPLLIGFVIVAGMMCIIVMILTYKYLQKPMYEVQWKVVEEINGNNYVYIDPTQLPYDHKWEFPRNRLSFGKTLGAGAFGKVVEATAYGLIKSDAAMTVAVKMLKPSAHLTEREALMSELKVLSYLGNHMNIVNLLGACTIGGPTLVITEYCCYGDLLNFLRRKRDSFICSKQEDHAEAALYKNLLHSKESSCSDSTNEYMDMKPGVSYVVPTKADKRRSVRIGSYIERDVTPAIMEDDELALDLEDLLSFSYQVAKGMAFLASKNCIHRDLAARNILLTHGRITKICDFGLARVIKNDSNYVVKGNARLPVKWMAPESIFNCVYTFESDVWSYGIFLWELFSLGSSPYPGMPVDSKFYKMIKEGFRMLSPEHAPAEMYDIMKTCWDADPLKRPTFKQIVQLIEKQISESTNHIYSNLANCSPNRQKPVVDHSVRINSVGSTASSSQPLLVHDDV

[31] = target: Serine/threonine-protein kinase SIK2 (Homo sapiens) (UniProt Q9H0K1); conditions: Compound concentration 1000.0 nM
[32] = target: Tyrosine-protein kinase Lyn (Homo sapiens) (UniProt P07948); conditions: Compound concentration 1000.0 nM
[33] = target: Serine/threonine-protein kinase Nek11 (Homo sapiens) (UniProt Q8NG66); conditions: Compound concentration 1000.0 nM
[34] = target: Tyrosine-protein kinase receptor TYRO3 (Homo sapiens) (UniProt Q06418); conditions: Compound concentration 1000.0 nM
[35] = test system: Epidermal growth factor receptor (Homo sapiens), P00533 [G719S]; conditions: Compound concentration 1000.0 nM
[36] = target: Ribosomal protein S6 kinase alpha-6 (Homo sapiens) (UniProt Q9UK32); conditions: Compound concentration 1000.0 nM
[37] = target: 5'-AMP-activated protein kinase catalytic subunit alpha-1 (Homo sapiens) (UniProt Q13131); conditions: Compound concentration 1000.0 nM
[38] = target: Serine/threonine-protein kinase PAK 5 (Homo sapiens) (UniProt Q9P286); conditions: Compound concentration 1000.0 nM

Sequence of Interleukin-1 receptor-associated kinase 1 (Homo sapiens) (P51617 whole entry, looked up): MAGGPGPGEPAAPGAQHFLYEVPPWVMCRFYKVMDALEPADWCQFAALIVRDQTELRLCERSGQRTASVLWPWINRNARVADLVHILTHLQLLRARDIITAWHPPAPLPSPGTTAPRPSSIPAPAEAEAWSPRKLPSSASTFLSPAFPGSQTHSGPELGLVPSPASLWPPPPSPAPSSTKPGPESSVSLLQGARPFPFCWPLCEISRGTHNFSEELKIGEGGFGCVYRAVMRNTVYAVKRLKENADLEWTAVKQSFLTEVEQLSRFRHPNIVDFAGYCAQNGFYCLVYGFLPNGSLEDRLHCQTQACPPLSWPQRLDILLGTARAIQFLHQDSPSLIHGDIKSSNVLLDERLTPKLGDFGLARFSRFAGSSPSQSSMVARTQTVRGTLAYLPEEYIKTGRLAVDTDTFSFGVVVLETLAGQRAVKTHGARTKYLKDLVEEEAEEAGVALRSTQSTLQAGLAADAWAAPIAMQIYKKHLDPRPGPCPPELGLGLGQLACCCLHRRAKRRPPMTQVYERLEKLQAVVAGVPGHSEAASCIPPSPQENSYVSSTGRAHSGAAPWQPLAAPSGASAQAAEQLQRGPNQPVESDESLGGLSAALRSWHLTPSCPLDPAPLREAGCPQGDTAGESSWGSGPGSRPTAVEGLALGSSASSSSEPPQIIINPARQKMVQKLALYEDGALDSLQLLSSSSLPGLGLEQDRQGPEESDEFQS

| Structure (SMILES) | inhibition [1] [%] | residual activity [2] [%] | residual activity [3] [%] | residual activity [4] [%] | residual activity [5] [%] | residual activity [6] [%] | residual activity [7] [%] | inhibition [8] [%] | residual activity [9] [%] | residual activity [10] [%] | residual activity [11] [%] | inhibition [12] [%] | residual activity [13] [%] | residual activity [14] [%] | residual activity [15] [%] | residual activity [16] [%] | residual activity [17] [%] | residual activity [18] [%] | residual activity [19] [%] | residual activity [20] [%] | other results |
| --- | --- | --- | --- | --- | --- | --- | --- | --- | --- | --- | --- | --- | --- | --- | --- | --- | --- | --- | --- | --- | --- |
| CCC(=O)N[C@H]1CC[C@@H](C(=O)N(C)c2ccc(-c3nc4ccccc4o3)cc2)C1 [BI 99179] | 34.9 | 83 | 98 | 88 | 100 | 96 | 100 | 32.8 | 89 | 100 | 91 | 28.9 | 89 | 90 | 100 | 100 | 91 | 96 | 63 | 79 | inhibition [21]: 4.58%; residual activity [22]: 89%; residual activity [23]: 74%; residual activity [24]: 79%; inhibition [25]: 77.3%; residual activity [26]: 74%; residual activity [27]: 86%; residual activity [28]: 100%; residual activity [29]: 99%; inhibition (Histamine H4 receptor): 39.3%; residual activity [30]: 86%; residual activity [31]: 78%; residual activity [32]: 100%; residual activity [33]: 86%; residual activity [34]: 92%; residual activity [35]: 100%; residual activity [36]: 82%; residual activity [37]: 99%; residual activity [38]: 100% |
| CCC(=O)N[C@@H]1CC[C@H](C(=O)N(C)c2ccc(-c3nc4ccccc4o3)cc2)C1 [BI 99990] | -2.82 | 100 | 100 | 100 | 93 | 95 | 97 | 20.2 | 100 | 82 | 100 | 5.19 | 100 | 100 | 87 | 95 | 100 | 100 | 98 | 100 | inhibition [21]: 17.9%; residual activity [22]: 84%; residual activity [23]: 84%; residual activity [24]: 75%; inhibition [25]: 23.3%; residual activity [26]: 98%; residual activity [27]: 76%; residual activity [28]: 100%; residual activity [29]: 75%; inhibition (Histamine H4 receptor): 55.3%; residual activity [30]: 89%; residual activity [31]: 100%; residual activity [32]: 92%; residual activity [33]: 100%; residual activity [34]: 82%; residual activity [35]: 96%; residual activity [36]: 84%; residual activity [37]: 91%; residual activity [38]: 100% |
